From publication PMC7822874, “Chemoprotective antimalarials identified through quantitative high-throughput screening of Plasmodium blood and liver stage parasites” (Scientific Reports, 2021)

Test system: Plasmodium falciparum Dd2 asexual blood stage parasites
Assay: microbe, parasite or virus in culture
Parameters: species or system Plasmodium falciparum Dd2 in human erythrocytes; single determination (one 11-point concentration-response curve)
Conditions: Plasmodium falciparum, DD2, Erythrocyte, 72 h; read-out: AC50

| Compound | AC50 [µM] |
| --- | --- |
| CN(C)Cc1cn2c(=O)n(C)cc(-c3cccc(C(F)(F)F)c3)c2n1 [NCGC00416418-01] | 21.7 |
| Cc1cnc(CC2CCCN([S+](=O)([O-])c3ccccc3)C2)n1CC1CC1 (stereo not shown) [NCGC00469674-01] | 6.68 |
| CCOc1ccccc1NC(C)C(=O)Nc1cc(C(F)(F)F)ccc1N1CCOCC1 (stereo not shown) [MLS000336343-01] | 2.66 |
| CCCCCCNC(=O)Cc1csc2nc(C)c(-c3cc(C)n(-c4cccc(C)c4)n3)c(=O)n12 [NCGC00473470-01] | 15 |
| CCOc1ccc(NC(=O)Nc2cc(OCC(F)(F)F)cc(OCC(F)(F)F)c2)cc1 [MLS000391697-01] | 13.3 |
| Cc1ccc(-c2nc(NC(=O)c3cc(C(C)(C)C)nn3C)sc2C)cc1Cl [MLS000860650-01] | 10.6 |
| COc1ccc(C2=[N+](C)CCn3cccc32)c(OC)c1 [MLS000705896-01] | 10.6 |
| COc1ccccc1N1CCN(CCCNC(=O)c2cnn(-c3ccccc3Cl)c2C2CCN(C(=O)OC(C)(C)C)CC2)CC1 [NCGC00126752-01] | 2.37 |
| CCn1cc(CN2CCCC(COc3ccccc3C(=O)N3CCCC3)C2)c2ccccc21 (stereo not shown) [NCGC00427142-01] | 8.41 |
| COc1ccc(C2c3ccc(O)cc3Oc3ncn4nc(-c5ccncc5)nc4c32)cc1OC (stereo not shown) [MLS000778948-01] | 15 |
| Cc1noc(C)c1-c1cc2c(cc(C)n2CCN(C)C)c(Nc2ccn(C)n2)n1 [NCGC00417199-01] | 13.7 |
| CCOC(=O)c1ccc(NC2=CC(c3ccc(F)cc3)N(c3ccc(C(=O)OCC)cc3)C2=O)cc1 (stereo not shown) [NCGC00102598-01] | 8.41 |
| COCc1ccc2c(c1)c(OC(C)(C)C(=O)N1CCN(CCO)CC1)nn2Cc1ccccc1 [NCGC00419658-01] | 9.44 |
| CCCCn1c(=N)c(C(=O)NC2CCCCC2)cc2c(=O)n3cccc(C)c3nc21 [NCGC00101037-01] | 1.5 |
| COc1cc(Br)c(C2CC(=O)Nc3cc4c(cc32)OCCO4)cc1OC (stereo not shown) [NCGC00107079-01] | 2.37 |
| COc1ccc(NC(=O)c2c(C)oc3ccc(O)c(CN4CCCCCC4)c23)cc1Cl [NCGC00115677-01] | 1.88 |
| COC(=O)c1nc2n(n1)C(c1ccc([N+](=O)[O-])cc1)C(C(=O)Nc1ccc(Cl)cc1)=C(C)N2 (stereo not shown) [MLS000582454-01] | 5.31 |
| COc1ccccc1N1CCN(CCCNC(=O)c2cnn(-c3cccc(Cl)c3)c2C2CCN(C(=O)OC(C)(C)C)CC2)CC1 [NCGC00126882-01] | 2.11 |
| CC(C)(C)Nc1nc(NC(C)(C)C)nc(-n2ccnc2)n1 [MLS000044025-01] | 4.73 |
| CCOc1cc(CNCC(O)c2ccccc2)cc(Cl)c1OC (stereo not shown) [MLS000676147-01] | 3.35 |

| Compound | AC50 [µM] |
| --- | --- |
| O=C1Nc2ccccc2C12Nc1ccccc1-c1nc3ccccc3n12 (stereo not shown) [MLS000051512-01] | 6.68 |
| COc1cccc(-c2nc(-c3c(C)noc3C)cc3c2cc(C)n3CCN(C)C)c1 [NCGC00417217-01] | 17.2 |
| O=C(c1ccc(-c2ncc3cnc(-c4ccccc4)cn23)cc1)N1CCc2cccnc21 [NCGC00413975-01] | 17.2 |
| O=C(Nc1ccncc1)c1cc(-c2cccc(Br)c2)nc2ccccc12 [MLS001159350-01] | 13.3 |
| OC(CNCC(c1ccco1)N1CCCCC1)c1ccccc1 (stereo not shown) [MLS000097545-01] | 5.96 |
| CCN(CC)C(=O)c1sc(NC(=O)C(C)Sc2nc(-c3ccccc3)cc(C(F)(F)F)n2)c(C(=O)OC)c1C (stereo not shown) [NCGC00101276-01] | 0.596 |
| CCN(CC)CCNC(=O)c1ccc(NC(=O)c2cccc(S(=O)(=O)N3CCc4ccccc43)c2)cc1 [MLS002169644-01] | 5.31 |
| Oc1cc(NCc2ccc(F)cc2)cc2cccnc12 [NCGC00183798-01] | 4.73 |
| CN1C(=O)C2(c3ccccc31)N(C)CC(c1ccccc1)C21SC(=S)N(Cc2ccco2)C1=O (stereo not shown) [MLS000559203-01] | 13.3 |
| COc1ccccc1-c1ccc2ncc(Nc3ccc4[nH]ccc4c3)n2n1 [NCGC00412550-01] | 4.33 |
| COc1cccc(CN2C(=O)OC3(CCN(Cc4ccccc4OC)CC3)C2(C)c2cccnc2)c1 (stereo not shown) [NCGC00415564-01] | 4.73 |
| O=C(C[n+]1c2n(c3ccccc31)CC(O)CS2)c1ccccc1 (stereo not shown) [MLS000687555-01] | 10.6 |
| O[C@H]1CC[C@@H](Cc2cc(COc3ccccc3)on2)O[C@@H]1CNCc1cccc(Cl)c1 [NCGC00393311-01] | 2.11 |
| CCc1ccc(Oc2c(C(F)(F)F)oc3c(CN4CCN(C)CC4)c(O)ccc3c2=O)cc1 [NCGC00101488-01] | 0.75 |
| CCCNC(=O)N1CC(Oc2cccc(-c3nc(-c4ccccc4)no3)c2)C1 [NCGC00441277-01] | 13.3 |
| COc1cc2nc(NCc3ccccc3Cl)n3nc(-c4cccnc4)nc3c2cc1OC [NCGC00112532-01] | 2.11 |
| CCOc1ccccc1C(=O)N1CC(=O)Nc2ccc(Cl)cc2C1c1ccccc1 (stereo not shown) [NCGC00103922-01] | 9.44 |
| COc1ccc(CNC(=O)C2CCN(c3nc(-c4ccccc4)nc4c3CCC4)CC2)cc1 [MLS001120192-01] | 7.5 |
| CC(C)(Oc1nn(Cc2cccc(Cl)c2)c2ccccc12)C(=O)NCCN1CCOCC1 [NCGC00419620-01] | 5.31 |
| CCC(=O)C1=C(c2cccc([N+](=O)[O-])c2)N(C(=O)CC)n2c(nnc2C2CCCCC2)S1 [NCGC00137266-01] | 1.88 |

| Compound | AC50 [µM] |
| --- | --- |
| COc1ccc2c(c1)C=C([C@@H]1C[C@H]3CN(c4ccccc4)C(=O)[C@]34CCCN14)CO2 [MLS000734809-01] | 0.944 |
| Cc1ccc(S(=O)(=O)N2CCN(/C(S)=N/Cc3ccc4c(c3)OCO4)CC2)cc1 [MLS001002637-01] | 2.37 |
| O=C(Cc1ccc2c(c1)OCO2)N1CCOCC2(CN(Cc3ccccc3)C2)C1 [NCGC00418996-01] | 6.85 |
| CCOc1cccc(CC(=O)Nc2ccc3nc(N4CCCCC4)cc(C)c3c2)c1OCC [NCGC00137846-01] | 6.68 |
| COc1ccc2nc(C[C@@H]3C[C@@H](C(C)C)[C@H](CNCc4cccnc4)C=C3C)[nH]c2n1 [NCGC00401578-01] | 19.3 |
| Cc1ncc(CN2CCC(C(=O)Nc3ccc(-n4cccn4)cc3)CC2)s1 [MLS001101085-01] | 4.73 |
| CCN(CC)c1ccc2oc(=O)c(C)nc2c1 [MLS000062529-01] | 6.68 |
| Cc1ccc(C)c(-n2c(-c3ccc(Br)cc3)csc2=NC(=O)c2ccccc2F)c1 [MLS000766129-01] | 4.73 |
| COc1ccc(N(CC(=O)NCc2ccccc2)C(=O)CCC(=O)Nc2cc(C)ccn2)c(OC)c1 [MLS000121471-01] | 10.6 |
| NCCc1cccc(CN2CCCC(COc3ccccc3F)C2)c1 (stereo not shown) [NCGC00434821-01] | 2.66 |
| O=C(Cc1ccccc1F)N1CCOc2ccc(CN3CCc4ccccc4C3)cc2C1 [NCGC00471206-01] | 13.3 |
| Cc1ccc(-c2nc3n(n2)C(c2ccccc2Cl)C=C(c2ccc(Cl)cc2)N3)cc1 (stereo not shown) [NCGC00105122-01] | 9.44 |
| COc1ccc2c(c1)c(CN1CCCCCCN(C)C(=O)[C@@H]3CCC[C@@H]31)cn2C [NCGC00465190-01] | 15 |
| COc1ccc(CCN(C)/C(S)=N/c2cccc(C)c2)cc1OC [MLS001177860-01] | 2.11 |
| CCN(CC)c1cc(CCC(=O)NCCN(C)C2CCCCC2)ccn1 [NCGC00469386-01] | 13.3 |
| COc1ccc(C(O)(CCC(C)C)C(CN2CCOCC2)c2ccc(Cl)cc2)cc1 (stereo not shown) [MLS001200330-01] | 6.68 |
| COc1ccccc1NC(=O)CN1CCN(C2c3ccccc3-c3ccccc32)CC1 [MLS000047428-01] | 15 |
| CCCCn1cc(C(=O)c2cc(Br)ccc2O)cc(C#N)c1=O [MLS000568063-01] | 13.3 |
